In paper PMC7482797 (2020):

Legend:
[1] = test system: BCL-2 GQ (DNA, G4) CGGGCGCGGGAGGAATTGGGCGGGAGC; test: CD melting; settings: 100 mM KCl; 20 mM PBS, pH 7.4; 2 µM GQ, TGP18 at 1:1 (2 µM)
[2] = test system: TEL22 GQ (DNA, G4) AGGGTTAGGGTTAGGGTTAGGG; test: fluorescence lifetime (TCSPC); settings: qualitative; lifetime 1.6 ns against 0.26 ns free; three-fold excess DNA over titration end point
[3] = test system: BCL-2 GQ (DNA, G4) CGGGCGCGGGAGGAATTGGGCGGGAGC; test: fluorescence titration, 640 nm; settings: 100 mM KCl or NaCl (so in the source); 20 mM PBS, pH 7.4; 1 µM TGP18; one-site fit
[4] = test system: c-KIT2 GQ (DNA, G4) CGGGCGGGCGCGAGGGAGGGG; test: fluorescence titration, 640 nm; settings: 100 mM KCl or NaCl (so in the source); 20 mM PBS, pH 7.4; 1 µM TGP18; one-site fit
[5] = test system: C-MYC GQ (DNA, G4) TGGGGAGGGTGGGGAGGGTGGGGAAGG; test: fluorescence titration, 640 nm; settings: 100 mM KCl or NaCl (so in the source); 20 mM PBS, pH 7.4; 1 µM TGP18; one-site fit
[6] = test system: VEGF GQ (DNA, G4) GGGGGCGGGCCGGGGGCGGGGTCCCGGCGGGGCGGAG; test: fluorescence titration, 640 nm; settings: 100 mM KCl or NaCl (so in the source); 20 mM PBS, pH 7.4; 1 µM TGP18; one-site fit
[7] = test system: KRAS GQ (DNA, G4) GGGAGGGAGGGAAGGAGGGAGGGAGGGA; test: fluorescence titration, 640 nm; settings: 100 mM KCl or NaCl (so in the source); 20 mM PBS, pH 7.4; 1 µM TGP18; one-site fit

ΔTm [1]: 8 °C
binding [2]: yes
KD [3]: 728 ± 34 nM
KD [4]: 5500 ± 230 nM
KD [5]: 1500 ± 190 nM
KD [6]: 2120 ± 350 nM
KD [7]: 1300 ± 130 nM
SMILES: CCN(CC)c1ccc2cc(C=Cc3ccc4ccc5ccc(C)nc5c4[n+]3C)c(=O)oc2c1
